From US20100197743A1, “Use of sulphur-containing heteroaromatic acid analogues” (Bayer CropScience AG, priority 2008, published 2010)

Test system: black Sigatoka fungus Mycosphaerella figiensis
Assay: Field study of black Sigatoka control on Cavendish bananas (Stover method)
Type: in vivo, Mycosphaerella figiensis on Cavendish bananas
Design: key to YLI last determ. (youngest infected leaf): leaf number of youngest leaf showing Sigatoka symptoms; YLI AUDPC / SEV AUDPC: unit not given here
Conditions: for SEV last determ. (severity of the disease) / YLI last determ. (youngest infected leaf): foliar spray, eight applications at seven-day intervals, last determination Oct. 23, 2008; for SEV ABBOTT: % severity calculated as described by ABBOTT; for SEV AUDPC / YLI AUDPC: area under the disease progress curve over the complete study period
Description: If the banana disease caused by the black Sigatoka fungus Mycosphaerella figiensis is not controlled, the latter can destroy the banana leaves and greatly reduce the yield. To control Sigatoka, commercially available fungicides are used which are usually applied to banana plants by foliar application.
It was intended to determine whether isotianil is capable of controlling the black Sigatoka infection with reference to studies carried out on Cavendish bananas in Devao del Norte in the southern Philippines.
Compound I-2 as defined above was formulated as a suspension concentrate formulation (200 SC) with Banol mineral oil and water in a ratio of 0.5 l of compound I-2 (200 SC), 5 l of oil and 74 l of water. The emulsifier used was 0.05 l of Lutensol so as to maintain the oil/water mixture as a stable emulsion.
After the formulation procedure, the mixture was sprayed onto banana trees using engine-driven spray mist applicators which applied a total volume of 80 l/ha.
This was followed by eight applications at seven-day intervals between Aug. 28 and Oct. 16, 2008. The isotianil application rate was 50, 75 and 100 g of a.i./ha, respectively.
For comparison with the isotianil plots, one plot was left untreated, and a further plot was sprayed with Sico (difenconazole 250 SC), a commercially available fungicide which is used for controlling black Sigatoka. Sico was sprayed together with Banol oil and Lutensol at an application rate of 100 g of a.i./ha, as above.
Each plot consisted of two banana plants at the BBCH growth stage 1056-1100. Each treatment consisted of three replications.
After the application, the disease level on the banana leaves was determined according to several parameters which are defined by the “Stover method” (Stover, 1971 R. H. Stover, A proposed international scale for estimating intensity of banana leaf spot, Tropical Agriculture).
Youngest infected leaf (YLI): This parameter records which leaf of the plant was the youngest leaf to show initial symptoms of Sigatoka infection. This is important since this has a direct relationship with the degree of infection, since the youngest leaves are infected last. Under the test conditions, the plants produce approximately one new leaf per week.
The severity of the disease (SEV) describes the direct percentage of visual disease on the plant.
The youngest infected leaf and the severity of the disease were determined weekly after the first application. The data hereinbelow describe the results of the last determination measured at the end of the experiment, on Oct. 23, 2008. After the weekly determination, moreover, the data were compiled in the form of a graph, and the area under the disease progress curve (AUDPC) was calculated over the complete study period and is listed hereinbelow. Moreover, % severity was calculated as described by ABBOTT.

**Q.** What does the source list for `N#Cc1ccccc1NC(=O)c1snc(Cl)c1Cl` [Compound I-2, isotianil]?
**A.** SEV last determ. (severity of the disease) (50 g of a.i./ha): 5.3%; YLI last determ. (youngest infected leaf) (50 g of a.i./ha): 4; SEV ABBOTT (50 g of a.i./ha): 72.4%; SEV AUDPC (50 g of a.i./ha): 314; YLI AUDPC (50 g of a.i./ha): 223; SEV last determ. (severity of the disease) (75 g of a.i./ha): 5%; YLI last determ. (youngest infected leaf) (75 g of a.i./ha): 4; SEV ABBOTT (75 g of a.i./ha): 74%; SEV AUDPC (75 g of a.i./ha): 285; YLI AUDPC (75 g of a.i./ha): 224; SEV last determ. (severity of the disease) (100 g of a.i./ha): 5.3%; YLI last determ. (youngest infected leaf) (100 g of a.i./ha): 4; SEV ABBOTT (100 g of a.i./ha): 72.6%; SEV AUDPC (100 g of a.i./ha): 313; YLI AUDPC (100 g of a.i./ha): 119
